These results are taken from patent publication US20020192703A1, “Immunoassay reagents and methods for determination of LSD and LSD metabolites” (priority 1995, published 2002).

The test system of series [1] is monoclonal antibody 19A7. In kind it is binding, mice. How it is done: Cross-reactivity was tested by spiking various potential cross-reactants into human urine containing a preservative.
Series [2] in a line: Dilution analysis of sample containing LSD metabolite, CEDIA. Type of series: binding. The following applies: for LSD ng/ml CEDIA: LSD equivalents. The protocol:
(§1) In the following experiment, the results of the CEDIA® are compared with those of the DPC assay, and with those obtained using the Abuscreen® radioimmunoassay by Roche. While the amount of metabolite in the sample is not known in absolute terms, the behavior is tested by dilution analysis. Results are given in terms of LSD equivalents.

Series [3] can be described thus: Dilution analysis of sample containing LSD metabolite, DPC RIA. The following applies: LSD equivalents. In kind it is binding. The protocol:
as §1

Series [4] is described as follows: Dilution analysis of sample containing LSD metabolite, Abuscreen RIA (Roche). The following applies: LSD equivalents. Type of series: binding. How it is done:
as §1

A short description of series [5]: Urine time course after LSD administration, GC/MS. The following applies: human. In kind it is in vivo. The protocol:
In this example, experiments were performed to better define the time course of excretion of LSD metabolites in urine, and the ability of various immunoassays to detect them.
Individuals were administered LSD, and urine samples were collected over a four-day period. The samples were assayed using the LSD enzyme-complementation immunoassay described in Examples 9 and 10 using monoclonal antibody 19A7. The samples were also measured using the DPC radioimmunoassay (“Coat-A-Count”® LSD assay, by Diagnostic Products Company) according to manufacturer's directions, and by GC/MS).
Results are shown in the following table in terms of LSD equivalents (translating the signal generated using a standard curve obtained with known concentrations of LSD).

The test system of series [6] is central nervous system. The note with it: hallucinations, distortions in sensory perception, mood changes; cited from earlier work.
For series [7] the following is noted: in man; calculated; cited from earlier work.
The mark [8] stands for this setting: Concentration Added 500,000 ng/ml, 100 × observed dose / concentration added.
Setting [9] is: Concentration Added 500,000 ng/ml, in human urine.
Setting [10] is: sample containing the metabolite, essentially free of LSD parent by GC/MS, undiluted.
Setting [11] is: Concentration Added 0.5 ng/ml, 100 × observed dose / concentration added.
The mark [12] stands for this setting: Concentration Added 0.5 ng/ml, in human urine.
Setting [13] is: Concentration Added 50,000 ng/ml, 100 × observed dose / concentration added.
Setting [14] is: Concentration Added 50,000 ng/ml, in human urine.

Structures can show the parent of a compound that is named as a salt. Where two headings read alike, the source gives them in different places.

With `CNCCC(Oc1ccc(C(F)(F)F)cc1)c1ccccc1` (centres unmarked) [Fluoxetine], the “% Cross-Reactivity” value in series [1] (Concentration Added 400000 ng/mL, 100 × observed dose / concentration added) worked out at 0.00012%. For the same molecule, in series [1] (Concentration Added 400000 ng/mL, in human urine), the “Concentration Observed” value is 0.48 ng/mL.
As for `CC(C)Cc1ccc(C(C)C(=O)O)cc1` (centres unmarked) [Ibuprofen], the “% Cross-Reactivity” value in series [1] (setting [8]) is on record as less than 0.00001%. Moreover, the “Concentration Observed” value in series [1] (setting [9]) came out at 0.0 ng/mL.
`CCN(CC)C(=O)[C@H]1C=C2c3cccc4[nH]cc(c34)C[C@H]2N(C)C1` [Iso LSD]: the “% Cross-Reactivity” value in series [1] (Concentration Added 2,500 ng/ml, 100 × observed dose / concentration added) is 0.04%. In addition, the “Concentration Observed” value in series [1] (Concentration Added 2,500 ng/ml, in human urine) was 0.93 ng/mL.
On to `CCN(CC)C(=O)[C@@H]1C=C2c3cccc4c3C(O)(C[C@H]2N(C)C1)C(=O)N4` (some centres unmarked) [LSD Metabolite], for which the “recognition of the metabolite by reagents of the invention relative to the Abuscreen assay” value in series [2] (CEDIA versus Abuscreen RIA) is “about 2.5 fold”. The “recognition of the metabolite by reagents of the invention relative to the DPC assay” value in series [2] (CEDIA versus DPC RIA) is recorded as “about 10 fold”. Moreover, the “LSD ng/ml CEDIA” value in series [2] (metabolite sample diluted 1:3) was determined as 0.50 ng/mL; in series [2] (setting [10]), 1.32 ng/mL. The “LSD ng/ml DPC RIA” value turned out to be 0.03 ng/mL in series [3] (metabolite sample diluted 1:3) and 0.14 ng/mL in series [3] (setting [10]). In addition, the results for the “LSD ng/ml Abuscreen RIA” value in series [4] (metabolite sample diluted 1:3) and in series [4] (setting [10]) were 0.23 ng/mL and 0.62 ng/mL, respectively.
Consider `CCN(CC)C(=O)[C@@H]1C=C2c3cccc4[nH]cc(c34)C[C@H]2N(C)C1` [LSD, lysergic acid diethylamide], for which, in series [1] (setting [11]), the “% Cross-Reactivity” value stood at 100.00%. The “Concentration Observed” value in series [1] (setting [12]) was 0.5 ng/mL. The concentration at 4 h in series [5] (urine sample JS U3, 4 hrs after LSD administration) came to 0.39 ng/mL; in series [5] (urine sample SW U3, 4 hrs after LSD administration), 0.54 ng/mL. The molecule further returned a concentration at 6 h in series [5] (urine sample JS U4, 6 hrs after LSD administration) of 0.37 ng/mL. The concentration at 8 h in series [5] (urine sample JS U5, 8 hrs after LSD administration) turned out to be 0.38 ng/mL; in series [5] (urine sample SW U4, 8 hrs after LSD administration), 0.52 ng/mL; in series [5] (urine sample SW U5, 8 hrs after LSD administration) it was 0.71 ng/mL. Further, the concentration at 10 h was 0.64 ng/mL in series [5] (urine sample JS U6, 10 hrs after LSD administration) and 0.76 ng/mL in series [5] (urine sample SW U6, 10 hrs after LSD administration). The concentration at 12 h was 0.52 ng/mL in series [5] (urine sample JS U7, 12 hrs after LSD administration) and 1.77 ng/mL in series [5] (urine sample SW U7, 12 hrs after LSD administration). Also, the concentration at 24 h in series [5] (urine sample JS U8, 24 hrs after LSD administration) came to 0.34 ng/mL; in series [5] (urine sample SW U8, 24 hrs after LSD administration), 1.42 ng/mL. Moreover, the concentration at 36 h was 0.03 ng/mL in series [5] (urine sample JS U9, 36 hrs after LSD administration) and 0.11 ng/mL in series [5] (urine sample SW U9, 36 hrs after LSD administration). Also, the concentration at 48 h amounted to 0.01 ng/mL in series [5] (urine sample JS U10, 48 hrs after LSD administration) and 0.04 ng/mL in series [5] (urine sample SW U10, 48 hrs after LSD administration). The concentration at 60 h in series [5] (urine sample JS U11, 60 hrs after LSD administration) was 0 ng/mL; in series [5] (urine sample SW U11, 60 hrs after LSD administration) it was 0.02 ng/mL. In addition, the concentration at 72 h stood at 0.02 ng/mL in series [5] (urine sample JS U12, 72 hrs after LSD administration) and 0 ng/mL in series [5] (urine sample SW U12, 72 hrs after LSD administration). The molecule also showed a concentration at 84 h in series [5] (urine sample JS U13, 84 hrs after LSD administration) of 0 ng/mL. Further, in series [5] (urine sample JS U14, 98 hrs after LSD administration), the concentration at 98 h came to 0 ng/mL. This molecule also came in with a concentration at 2 h in series [5] (urine sample SW U2, 2 hrs after LSD administration) of 0.33 ng/mL. Further, the concentration at 96 h in series [5] (urine sample SW U14, 96 hrs after LSD administration) is 0.01 ng/mL. The “Oral doses that can cause central nervous system disturbances (as low as)” value in series [6] is 25 µg. In series [7], the plasma half-life result is “about 3 hours”.
In the case of `N[C@@H](Cc1cc(I)c(Oc2cc(I)c(O)c(I)c2)c(I)c1)C(=O)O` [Levothyroxine (T4), Levothyroxine], the “% Cross-Reactivity” value in series [1] (setting [13]) is given as less than 0.0001%. Further, the “Concentration Observed” value in series [1] (setting [14]) was found to be 0.0 ng/mL.
For `CN1C[C@H](C(=O)O)C=C2c3cccc4[nH]cc(c34)C[C@H]21` [Lysergic Acid], in series [1], the “% Cross-Reactivity” value was 0.00000% and the “Concentration Observed” value was “≦0.01 ng/mL”.
Consider `CN1C[C@H](CO)C=C2c3cccc4[nH]cc(c34)C[C@H]21` [Lysergol], for which, in series [1] (Concentration Added 5,000 ng/ml, 100 × observed dose / concentration added), the “% Cross-Reactivity” value worked out at 0.00034%. For the same molecule, the “Concentration Observed” value in series [1] (Concentration Added 5,000 ng/ml, in human urine) is 0.01 ng/mL.
`CN[C@@H](C)Cc1ccccc1` [Methamphetamine]: the “% Cross-Reactivity” value in series [1] (Concentration Added 200000 ng/mL, 100 × observed dose / concentration added) stood at 0.00019%. In series [1] (Concentration Added 200000 ng/mL, in human urine), the “Concentration Observed” value turned out to be 0.45 ng/mL.
Consider `CC[C@@H](CO)NC(=O)[C@@H]1C=C2c3cccc4c3c(cn4C)C[C@H]2N(C)C1` [Methysergide Maleate], for which the “% Cross-Reactivity” value in series [1] (setting [13]) is recorded as 0.00147%. Besides, the “Concentration Observed” value in series [1] (setting [14]) is recorded as 0.74 ng/mL.
Take `CN1CC[C@]23c4c5ccc(O)c4O[C@H]2[C@@H](O)C=C[C@H]3[C@H]1C5` [Morphine]: in series [1], the “% Cross-Reactivity” value was less than 0.00001% and the “Concentration Observed” value is recorded as 0.0 ng/mL.
As to `c1ccc(C2(N3CCCCC3)CCCCC2)cc1` [Phencyclidine], the “% Cross-Reactivity” value in series [1] (setting [8]) was found to be 0.00002%. For the same molecule, in series [1] (setting [9]), the “Concentration Observed” value came out at 0.11 ng/mL.
As to `CN(C)CCc1c[nH]c2cccc(O)c12` [Psilocyn], the “% Cross-Reactivity” value in series [1] (Concentration Added 10,000 ng/ml, 100 × observed dose / concentration added) was determined as 0.00000%. Also, the “Concentration Observed” value in series [1] (Concentration Added 10,000 ng/ml, in human urine) is “≦0.01 ng/mL”.
Regarding `C=CCC1(C(C)CCC)C(=O)NC(=O)NC1=O` (centres unmarked) [Secobarbital], in series [1] (setting [8]), the “% Cross-Reactivity” value is less than 0.00001%. Also, the “Concentration Observed” value in series [1] (setting [9]) turned out to be 0.0 ng/mL.
In the case of `NCCc1c[nH]c2ccc(O)cc12` [Seretonine], the “% Cross-Reactivity” value in series [1] (Concentration Added 1,000,000 ng/ml, 100 × observed dose / concentration added) is recorded as 0.00000%. Also, the “Concentration Observed” value in series [1] (Concentration Added 1,000,000 ng/ml, in human urine) is listed as “≦0.01 ng/mL”.
As for `Cc1ccc(C(=O)c2ccc(CC(=O)O)n2C)cc1` [Tolmetin], the “% Cross-Reactivity” value in series [1] (setting [8]) was less than 0.00001%. Moreover, the “Concentration Observed” value in series [1] (setting [9]) stood at 0.0 ng/mL.
With `N[C@@H](Cc1c[nH]c2ccccc12)C(=O)O` [Tryptophan], the “% Cross-Reactivity” value in series [1] (Concentration Added 100,000 ng/ml, 100 × observed dose / concentration added) was found to be 0.00000%. In addition, in series [1] (Concentration Added 100,000 ng/ml, in human urine), the “Concentration Observed” value was “≦0.01 ng/mL”.
For the molecule `CCCN(C)C(=O)[C@@H]1C=C2c3cccc4[nH]cc(c34)C[C@H]2N(C)C1` [d-LAMPA, Lysergic acid methyl-propyl amide], the “% Cross-Reactivity” value in series [1] (setting [11]) was 58.7%. Also, the “Concentration Observed” value in series [1] (setting [12]) turned out to be 0.29 ng/mL.
